# Experimental data as given in US4175081A, “5-Substituted thiadiazole ureas” (priority 1977, dated 1979).
# Key:
# Crabgrass (CG) [1] = assay: Pre-emergence herbicide test; assay type: in vivo, Digitaria sanquinalis; conditions: Digitaria sanguinalis, pre-emergence, 336 h, two weeks after treatment
# In short: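 Crabgrass (Digitaria sanquinalis) was surface seeded in 3' plastic pots of potting soil, covered with screened soil, and watered by sub-irrigation in greenhouse trays. Pots were seeded one day before spraying in a hood with a moving belt and fixed nozzle. Plants stayed in the greenhouse on sub-irrigation, and pre-emergence control was rated visually two weeks after treatment.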
# [2] = system: Yellow foxtail grass (YF); assay: Pre-emergence herbicide test; assay type: in vivo, Setaria glauca; conditions: Setaria, 336 h, two weeks after treatment
# In short: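 Visual rating of injury/control made two weeks after a pre-emergence spray of 8 or 4 lbs active per acre (38 gal/acre) onto pots seeded the previous day. Greenhouse watering by sub-irrigation only.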
# Johnson grass (JG) [3] = assay: Pre-emergence herbicide test; assay type: in vivo, Sorgum helepense; conditions: Sorghum halepense, 336 h, two weeks after treatment
# In short: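 Visual injury or control rating two weeks post-treatment, after pre-emergence spray of 8 or 4 lbs active per acre (38 gal/acre) onto pots sown the previous day. Greenhouse watering by sub-irrigation only.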
# Barnyard grass (BG) [4] = assay: Pre-emergence herbicide test; assay type: in vivo; conditions: Echinochloa crus-galli, 336 h, two weeks after treatment
# In short: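 Greenhouse pre-emergence spray test: pots seeded one day before treatment received compound at rates of 8 or 4 lb/acre (38 gal/acre). Visual injury/control scores for Echinochloa crus-galli taken at two weeks, with watering by sub-irrigation only.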
# Amaranth pigweed (PW) [5] = assay: Pre-emergence herbicide test; assay type: in vivo, Amaranthus retroflexus; conditions: 336 h, two weeks after treatment
# In short: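 Visual injury or control ratings were made at two weeks on pre-emergence pots, sub-irrigated in the greenhouse. Seeds were sown a day before a hood spray delivering 8 lbs/acre (or 4 lbs/acre) of compound in 38 gallons per acre.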
# Turnip (TP) [6] = assay: Pre-emergence herbicide test; assay type: in vivo, Brassica sp.; conditions: Brassica rapa, pre-emergence, 336 h, two weeks after treatment
# In short: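 In this pre-emergence greenhouse test, turnip was seeded on the surface of potting soil in 3' plastic pots, lightly covered with screened soil, and watered from below. One day later the pots were sprayed in a belt-fed spray hood. Watering continued only by sub-irrigation, and percent control was visually scored two weeks after treatment.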
# Cotton (CT) [7] = assay: Pre-emergence herbicide test; assay type: in vivo, Gossypium hirsutum var. DPL smooth leaf; conditions: Gossypium hirsutum, 336 h, two weeks after treatment
# In short: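 Visual injury/control ratings were taken at two weeks post-spray. Pots seeded a day earlier received compound pre-emergence at 8 lbs/acre, or 4 lbs/acre, in a 38 gallon/acre spray volume, and were then held in the greenhouse, watered only from below.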
# Corn (CN) [8] = assay: Pre-emergence herbicide test; assay type: in vivo; conditions: Zea mays, 336 h, two weeks after treatment
# In short: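 Visual injury/control ratings were made 2 weeks post-spray on corn pots seeded (4 seeds, seed-diameter depth) the day before treatment. Application was a belt-hood spray of 38 gal/acre delivering 8 lbs active per acre, with a 4 lbs/acre rate also formulated. Watering was by sub-irrigation throughout.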
# Bean (BN) [9] = assay: Pre-emergence herbicide test; assay type: in vivo, Phaseolus vulgaris var. Black Valentine; conditions: Phaseolus vulgaris, 336 h, two weeks after treatment
# In short: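 Visual injury/control ratings were taken two weeks post-spray on sub-irrigated Phaseolus vulgaris var. Black Valentine. Pots were sown a day before treatment. Pre-emergence spray delivered 8 lbs actual compound per acre (or 4 lbs/acre) at 38 gallons per acre.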
# Crabgrass (CG) [10] = assay: Post-emergence herbicide test; assay type: in vivo, Digitaria sanquinalis; conditions: Digitaria sanguinalis, post-emergence, 336 h, two weeks after treatment
# In short: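 Crabgrass (Digitaria sanquinalis) was surface seeded individually in 3' plastic pots of potting soil, covered with screened soil, and watered by sub-irrigation in greenhouse trays. Planting was staggered so seedlings reached the target stage together. Post-emergence sprays were applied in a hood with a removable belt and fixed nozzle, and control was visually rated two weeks after treatment.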
# [11] = system: Yellow foxtail grass (YF); assay: Post-emergence herbicide test; assay type: in vivo, Setaria glauca; conditions: Setaria, 336 h, two weeks after treatment
# In short: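 Visual rating of injury/control made 2 weeks post-spray. Seedlings at a uniform growth stage in soil-filled pots received a hood spray of 8 lbs/acre active compound, 38 gallons/acre volume, with a 4 lbs/acre rate also formulated. Watering was by sub-irrigation only.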
# Johnson grass (JG) [12] = assay: Post-emergence herbicide test; assay type: in vivo, Sorgum helepense; conditions: Sorghum halepense, 336 h, two weeks after treatment
# In short: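 Visual injury or control scores taken 2 weeks after a post-emergence spray of pot-grown plants. Application was 8 lbs/acre (or 4 lbs/acre) in 38 gal/acre. Plants were held in the greenhouse with sub-irrigation only.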
# Barnyard grass (BG) [13] = assay: Post-emergence herbicide test; assay type: in vivo; conditions: Echinochloa crus-galli, 336 h, two weeks after treatment
# In short: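 Greenhouse pot-grown barnyard grass seedlings sprayed post-emergence at 8 lbs active compound per acre (some at 4 lbs/acre) in 38 gallons per acre, then sub-irrigated. Injury or control rated visually two weeks after treatment.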
# Amaranth pigweed (PW) [14] = assay: Post-emergence herbicide test; assay type: in vivo, Amaranthus retroflexus; conditions: 336 h, two weeks after treatment
# In short: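 Visual injury or control ratings were made two weeks after spraying, with greenhouse watering by sub-irrigation only. Treatment was post-emergence, when pigweed seedlings had 1 or 2 true leaves, at 8 lbs active compound per acre (4 lbs/acre formulations also made) in a 38 gallons-per-acre spray volume.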
# Turnip (TP) [15] = assay: Post-emergence herbicide test; assay type: in vivo, Brassica sp.; conditions: Brassica rapa, post-emergence, 336 h, two weeks after treatment
# In short: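 A greenhouse post-emergence herbicide test on turnip. Seeds were sown on the surface of potting soil in 3' plastic pots, lightly covered with screened soil and watered from below. Planting was timed so seedlings had 1 or 2 true leaves above the cotyledons at spraying, done in a hood with a fixed nozzle. Control or injury was scored by eye after two weeks.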
# Cotton (CT) [16] = assay: Post-emergence herbicide test; assay type: in vivo, Gossypium hirsutum var. DPL smooth leaf; conditions: Gossypium hirsutum, post-emergence, 336 h, two weeks after treatment
# In short: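 This greenhouse post-emergence test measured how well spray treatments controlled cotton. Seedlings of Gossypium hirsutum var. DPL smooth leaf, with expanded cotyledons and a first true leaf 1' in length, were sprayed with 50 ml formulations in a belt-fed spray hood. They were then returned to the greenhouse and watered only by sub-irrigation. Injury was scored visually as % control after two weeks.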
# Corn (CN) [17] = assay: Post-emergence herbicide test; assay type: in vivo; conditions: Zea mays, 336 h, two weeks after treatment
# In short: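 Greenhouse seedlings grown in potting soil and sprayed post-emergence at 8 lbs compound/acre (formulations also made for 4 lbs/acre) in 38 gallons/acre spray volume. Watering by sub-irrigation only. Injury or control rated visually two weeks after treatment.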
# Bean (BN) [18] = assay: Post-emergence herbicide test; assay type: in vivo, Phaseolus vulgaris var. Black Valentine; conditions: Phaseolus vulgaris, post-emergence, 336 h, two weeks after treatment
# In short: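 Bean seedlings (Phaseolus vulgaris var. Black Valentine) were grown in potting soil in 3' pots until the primary leaves expanded. They were then sprayed under a hood with a removable belt and fixed nozzle, using 50 ml formulations. Afterward they were returned to the greenhouse and watered only by sub-irrigation. Percent control was judged visually two weeks after treatment.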
structure (smiles),measurement,setting,value
CNC(=O)N(C)c1nnc(C(C)(C)C)s1 [Example 42],pest or weed control,Crabgrass (CG) [1]; 2 lb/acre,90%
same,pest or weed control at 4483.4 g/ha,Crabgrass (CG) [1]; 4 lb/acre,90%
same,pest or weed control at 8966.8 g/ha,Crabgrass (CG) [1]; 8 lb/acre,90%
same,pest or weed control at 2241.7 g/ha,[2]; 2 lb/acre,90%
same,pest or weed control at 4483.4 g/ha,[2]; 4 lb/acre,80%
same,pest or weed control at 8966.8 g/ha,[2]; 8 lb/acre,90%
same,pest or weed control at 2241.7 g/ha,Johnson grass (JG) [3]; 2 lb/acre,70%
same,pest or weed control at 4483.4 g/ha,Johnson grass (JG) [3]; 4 lb/acre,90%
same,pest or weed control at 8966.8 g/ha,Johnson grass (JG) [3]; 8 lb/acre,100%
same,pest or weed control at 2241.7 g/ha,Barnyard grass (BG) [4]; 2 lb/acre,80%
same,pest or weed control at 4483.4 g/ha,Barnyard grass (BG) [4]; 4 lb/acre,90%
same,pest or weed control at 8966.8 g/ha,Barnyard grass (BG) [4]; 8 lb/acre,90%
same,pest or weed control at 2241.7 g/ha,Amaranth pigweed (PW) [5]; 2 lb/acre,100%
same,pest or weed control at 4483.4 g/ha,Amaranth pigweed (PW) [5]; 4 lb/acre,100%
same,pest or weed control at 8966.8 g/ha,Amaranth pigweed (PW) [5]; 8 lb/acre,100%
same,pest or weed control at 2241.7 g/ha,Turnip (TP) [6]; 2 lb/acre,100%
same,pest or weed control at 4483.4 g/ha,Turnip (TP) [6]; 4 lb/acre,90%
same,pest or weed control at 8966.8 g/ha,Turnip (TP) [6]; 8 lb/acre,100%
same,pest or weed control at 2241.7 g/ha,Cotton (CT) [7]; 2 lb/acre,30%
same,pest or weed control at 4483.4 g/ha,Cotton (CT) [7]; 4 lb/acre,70%
same,pest or weed control at 8966.8 g/ha,Cotton (CT) [7]; 8 lb/acre,90%
same,pest or weed control at 2241.7 g/ha,Corn (CN) [8]; 2 lb/acre,0%
same,pest or weed control at 4483.4 g/ha,Corn (CN) [8]; 4 lb/acre,60%
same,pest or weed control at 8966.8 g/ha,Corn (CN) [8]; 8 lb/acre,90%
same,pest or weed control at 2241.7 g/ha,Bean (BN) [9]; 2 lb/acre,40%
same,pest or weed control at 4483.4 g/ha,Bean (BN) [9]; 4 lb/acre,90%
same,pest or weed control at 8966.8 g/ha,Bean (BN) [9]; 8 lb/acre,100%
same,pest or weed control,Crabgrass (CG) [10]; 2 lb/acre,40%
same,pest or weed control at 4483.4 g/ha,Crabgrass (CG) [10]; 4 lb/acre,70%
same,pest or weed control at 8966.8 g/ha,Crabgrass (CG) [10]; 8 lb/acre,100%
same,pest or weed control,[11]; 2 lb/acre,90%
same,pest or weed control at 4483.4 g/ha,[11]; 4 lb/acre,90%
same,pest or weed control at 8966.8 g/ha,[11]; 8 lb/acre,100%
same,pest or weed control,Johnson grass (JG) [12]; 2 lb/acre,70%
same,pest or weed control at 4483.4 g/ha,Johnson grass (JG) [12]; 4 lb/acre,90%
same,pest or weed control at 8966.8 g/ha,Johnson grass (JG) [12]; 8 lb/acre,100%
same,pest or weed control at 2241.7 g/ha,Barnyard grass (BG) [13]; 2 lb/acre,90%
same,pest or weed control at 4483.4 g/ha,Barnyard grass (BG) [13]; 4 lb/acre,90%
same,pest or weed control at 8966.8 g/ha,Barnyard grass (BG) [13]; 8 lb/acre,100%
same,pest or weed control at 2241.7 g/ha,Amaranth pigweed (PW) [14]; 2 lb/acre,100%
same,pest or weed control at 4483.4 g/ha,Amaranth pigweed (PW) [14]; 4 lb/acre,100%
same,pest or weed control at 8966.8 g/ha,Amaranth pigweed (PW) [14]; 8 lb/acre,100%
same,pest or weed control at 2241.7 g/ha,Turnip (TP) [15]; 2 lb/acre,100%
same,pest or weed control at 4483.4 g/ha,Turnip (TP) [15]; 4 lb/acre,100%
same,pest or weed control at 8966.8 g/ha,Turnip (TP) [15]; 8 lb/acre,100%
same,pest or weed control at 2241.7 g/ha,Cotton (CT) [16]; 2 lb/acre,100%
same,pest or weed control at 4483.4 g/ha,Cotton (CT) [16]; 4 lb/acre,100%
same,pest or weed control at 8966.8 g/ha,Cotton (CT) [16]; 8 lb/acre,100%
same,pest or weed control,Corn (CN) [17]; 2 lb/acre,70%
same,pest or weed control at 4483.4 g/ha,Corn (CN) [17]; 4 lb/acre,70%
same,pest or weed control at 8966.8 g/ha,Corn (CN) [17]; 8 lb/acre,100%
same,pest or weed control at 2241.7 g/ha,Bean (BN) [18]; 2 lb/acre,80%
same,pest or weed control at 4483.4 g/ha,Bean (BN) [18]; 4 lb/acre,100%
same,pest or weed control at 8966.8 g/ha,Bean (BN) [18]; 8 lb/acre,100%
